Source: US7384789B2, “Divalent metal ion sensors and binders” (The University of North Dakota, priority 2006, dated 2008)

What was measured:
[1] = Cai et al., Inorg. Chim. Acta 1997; cited from earlier work
[2] = Fluorescence emission profile with stoichiometric divalent metal ion: Zn^2+; settings: for effect of Zn^2+ on fluorescence emission intensity: stoichiometric ion, λex/λem: compound 1 300/390 nm, compound 3 315/357 nm, compound 4 365/520 nm
Method: (§1) Commercially available reagents, obtained from Acros Organics and Aldrich were used as received. All solvents were distilled before use. Reactions were monitored by thin-layer chromatography (TLC) and visualization was accomplished with a UV lamp. Reaction mixtures were purified by column chromatography, performed with the indicated solvents using silica gel (230-400 mesh). The Rf values were calculated based on the eluents used for purification. The yields reported refer to chromatographically and spectroscopically pure compounds. The purity of the compounds were ascertained by GC/MS analysis (HP 5890 Series II GC fitted with HP 5971 Series Mass Selective Detector). ^1H and proton decoupled ^13C NMR spectra were recorded on a Bruker AMX 500 MHz spectrometer at ambient temperature. The fluorescence spectra were obtained using Jobin Yvon Horiba Fluorolog-3 spectrofluorometer. The HEPES buffer was prepared from commercially available 1M solution of the free acid and the pH was adjusted to 7.0 by the addition of KOH pellets in the presence of 0.135 M NaCl. The fluorescence measurements were carried out on 3 mL samples of the sensor and 3 μL aliquots of the 200 mM metal ion solution in HEPES were added to the sample to make up the desired metal concentrations.
(§2) The influence of divalent metal ions on the fluorescence spectral profile of compound 1 is shown in FIG. 1, where the fluorescence emission spectra of 200 μM compound 1 (λex=300 nm) with stoichiometric concentrations of selected divalent metal ions. Compound 1 has a weak fluorescence emission peak around 386-390 nm, which is differently affected by different metal ions. […] In contrast, the fluorescence intensity of compound 1 decreases in the presence of Cu^2+, Ni^2+, and Co^2+.
The influence of divalent metal ions on the fluorescence spectral profile of compound 3 is shown in FIG. 3, where the fluorescence emission spectra of 200 μM […] (λex=315 nm) with stoichiometric concentrations of selected divalent metal ions. Compound 3 has a weak fluorescence emission peak around 355-360 nm, which is differently affected by different metal ions. […] In contrast, as expected, the fluorescence intensity of compound 3 decreases in the presence of Cu^2+, Ni^2+, and Co^2+. […] Titration of compound 3 with Zn^2+ indicates a Kd value of 2 mM (approx.).
The influence of divalent metal ions on the fluorescence spectral profile of compound is shown in FIG. 4, where the fluorescence emission spectra of 200 μM […] (λex=365 nm) with stoichiometric concentrations of selected divalent metal ions. Compound 4 has a UV absorption maximum at 425 nm. […] Excitation at shorter wavelengths e.g. at 365 nm leads to a weak emission peak around 520 nm, which is differently affected by different metal ions.

[3] = Fluorescence emission profile with stoichiometric divalent metal ion: Mg^2+; settings: 200 μM compound, λex/λem: compound 1 300/390 nm, compound 3 315/357 nm, compound 4 365/520 nm
Method: as §1, with “The HEPES buffer was prepared from commercially available 1M solution of the free acid and the pH was adjusted to 7.0 by the addition of KOH pellets in the presence of 0.135 M NaCl.” left out
as §2
(§3) The influence of divalent metal ions on the fluorescence spectral profile of compound 3 is shown in FIG. 3, where the fluorescence emission spectra of 200 μM […] (λex=315 nm) with stoichiometric concentrations of selected divalent metal ions. Compound 3 has a weak fluorescence emission peak around 355-360 nm, which is differently affected by different metal ions. […] In contrast, as expected, the fluorescence intensity of compound 3 decreases in the presence of Cu^2+, Ni^2+, and Co^2+. […]

[4] = Fluorescence emission profile with stoichiometric divalent metal ion: Ca^2+; settings: 200 μM compound, λex/λem: compound 1 300/390 nm, compound 3 315/357 nm, compound 4 365/520 nm
Method: as §1, with “The HEPES buffer was prepared from commercially available 1M solution of the free acid and the pH was adjusted to 7.0 by the addition of KOH pellets in the presence of 0.135 M NaCl.” left out
as §2, §3

[5] = Fluorescence emission profile with stoichiometric divalent metal ion: Cu^2+; settings: 200 μM compound, λex/λem: compound 1 300/390 nm, compound 3 315/357 nm, compound 4 365/520 nm
Method: as §1, with “The HEPES buffer was prepared from commercially available 1M solution of the free acid and the pH was adjusted to 7.0 by the addition of KOH pellets in the presence of 0.135 M NaCl.” left out
as §2, §3

[6] = Fluorescence emission profile with stoichiometric divalent metal ion: Ni^2+; settings: 200 μM compound, λex/λem: compound 1 300/390 nm, compound 3 315/357 nm, compound 4 365/520 nm
Method: as §1, with “The HEPES buffer was prepared from commercially available 1M solution of the free acid and the pH was adjusted to 7.0 by the addition of KOH pellets in the presence of 0.135 M NaCl.” left out
as §2, §3

[7] = Fluorescence emission profile with stoichiometric divalent metal ion: Co^2+; settings: 200 μM compound, λex/λem: compound 1 300/390 nm, compound 3 315/357 nm, compound 4 365/520 nm
Method: as §1, with “The HEPES buffer was prepared from commercially available 1M solution of the free acid and the pH was adjusted to 7.0 by the addition of KOH pellets in the presence of 0.135 M NaCl.” left out
as §2, §3

Solubility = assay type: physicochemical; settings: for solubility: solvent not given
[8] = Fluorescence emission profile with stoichiometric divalent metal ion: Cd^2+; settings: 200 μM compound, λex/λem: compound 3 315/357 nm, compound 4 365/520 nm
Method: as §1, with “The HEPES buffer was prepared from commercially available 1M solution of the free acid and the pH was adjusted to 7.0 by the addition of KOH pellets in the presence of 0.135 M NaCl.” left out
(§4) The influence of divalent metal ions on the fluorescence spectral profile of compound 3 is shown in FIG. 3, where the fluorescence emission spectra of 200 μM compound 1 (λex=315 nm) with stoichiometric concentrations of selected divalent metal ions. […]

[9] = Fluorescence emission profile with stoichiometric divalent metal ion: Hg^2+; settings: 200 μM compound, λex/λem: compound 3 315/357 nm, compound 4 365/520 nm
Method: as §1, with “The HEPES buffer was prepared from commercially available 1M solution of the free acid and the pH was adjusted to 7.0 by the addition of KOH pellets in the presence of 0.135 M NaCl.” left out
as §4

[10] = Spectrofluorometric titration of compound with Zn^2+ (ZnCl2); assay type: binding; settings: approx.
Method: as §1, with “The HEPES buffer was prepared from commercially available 1M solution of the free acid and the pH was adjusted to 7.0 by the addition of KOH pellets in the presence of 0.135 M NaCl.” left out
To determine the magnitude of Zn^2+ induced fluorescence spectral changes of compound 1 as well as its binding affinity, a detailed spectrofluorometric titration study was performed.

Row | Molecule | divalent metal binding [1] | effect of Zn^2+ on fluorescence emission intensity ([2]; 200 μM compound) | Zn^2+-induced fluorescence enhancement in the presence of excess Ca^2+ ([2]; 100 fold excess of Ca^2+) | increase of fluorescence emission intensity in the presence of Zn^2+ ([2]; stoichiometric concentration of Zn^2+, 200 μM compound, λex=300 nm) | effect of Mg^2+ on fluorescence emission intensity [3] | effect of Ca^2+ on fluorescence emission intensity [4] | effect of Cu^2+ on fluorescence emission intensity [5] | effect of Ni^2+ on fluorescence emission intensity [6] | effect of Co^2+ on fluorescence emission intensity [7] | solubility in the aqueous medium (Solubility; aqueous medium) | solubility (Solubility) | effect of Cd^2+ on fluorescence emission intensity [8] | effect of Hg^2+ on fluorescence emission intensity [9] | solubility in water and methanol (Solubility; water and methanol) | Kd [10] [µM]
1 | Cc1cc(N(CC(=O)O)CC(=O)O)c(O)c(N(CC(=O)O)CC(=O)O)c1 [N,N,N′,N′-tetrakis(carboxylatemethyl)-2,6-diaminocresol] | binding to only Co^2+ or Cu^2+ |  |  |  |  |  |  |  |  |  |  |  |  |  | 
2 | COc1c(N(CC(=O)[O-])CC(=O)[O-])cc(C)cc1N(CC(=O)[O-])CC(=O)[O-].[K+].[K+].[K+].[K+] [compound 1, Potassium-2,6-diamino-(N,N,N′,N′-tetraacetate)-4-methylanisole] |  | most dramatic effect | maintained | about 10 fold | barely affected | only slightly increased | decreases | decreases | decreases | high solubility | readily soluble |  |  |  | 
3 | Sodium 2,6-diamino-(N,N,N′,N′-tetraacetate)-3-nitroanisole [compound 4] |  | substantially enhanced |  |  | slightly quenched | slightly quenched | significantly quenched | significantly quenched | significantly quenched |  |  | substantially enhanced | no discernable effect |  | 
4 | Zinc-2,6-diamino-(N,N,N′,N′-tetraacetate)-4-methylanisole [compound 1-Zn complex] |  |  |  |  |  |  |  |  |  |  | low solubility |  |  | low solubility | 
5 | O=C([O-])CN(CC(=O)[O-])c1cccc(N(CC(=O)[O-])CC(=O)[O-])c1.[Na+].[Na+].[Na+].[Na+] [compound 3, Sodium 1,3-diamino-(N,N,N′,N′-tetraacetate)benzene] |  | enhanced significantly |  |  | slightly enhanced | slightly enhanced | decreases | decreases | decreases |  |  | slightly enhanced | slightly enhanced |  | ~2000
